Test results as given in paper PMC11045757, “Group 3 medulloblastoma transcriptional networks collapse under domain specific EP300/CBP inhibition” (Nature Communications, 2024).

Test system: 460 barcoded cancer cell lines
Test: PRISM pooled barcoded cancer cell line growth screen, 10-point dose-response, 5 days, AUC
Format: cell-based
Design: scale not given here
Text: Several small molecule inhibitors of distinct protein domains of EP300/CBP are available, though the majority target the histone acetyltransferase domain (HAT) or bromodomain (BRD)[5],[10],[21],[22]. […] We used these tools to investigate the relative contribution of the EP300/CBP BRD or HAT domain to tumor cell growth (Fig. 1a). To do so, we performed 10-point, dose-response growth assays using mixed pools of 460 barcoded cancer cell lines, over five days of treatment in vitro[33],[34]. Growth was measured using an area-under-the-curve (AUC) approach (Supplementary Table 1, Supplementary Fig. 1a). […] Given potential differences in compound penetration and solubility, and to compare the relative cell line and tumor-specific effects of these two compounds in assays performed non-simultaneously, we performed a median normalization of each dataset (Supplementary Table 2).

CO[C@H]1CC[C@H](n2c([C@@H]3CCCC(=O)N3c3ccc(F)c(F)c3)nc3cc(-c4c(C)noc4C)ccc32)CC1 [CCS1477]
AUC (MG63, Osteosarcoma): 1 | AUC (MHHNB11, Neuroblastoma): 0.7003 | AUC (MIAPACA2, Pancreatic Cancer): 0.9396 | AUC (MKN1, Gastric Cancer): 0.9606 | AUC (MKN7, Gastric Cancer): 0.7767 | AUC (MKN45, Gastric Cancer): 0.856 | AUC (MOLM13, AML): 0.3814 | AUC (MOLM16, AML): 0.9868 | AUC (MOLT3, T-acute leukemia): 0.9924 | AUC (MOLT16, T-acute leukemia): 0.8465 | AUC (MON, Rhabdoid): 0.6598 | AUC (NB1, Neuroblastoma): 0.5737 | AUC (NB4, AML): 1 | AUC (NCIH23, Lung Cancer): 0.9771 | AUC (NCIH28, Lung Cancer): 0.9928 | AUC (NCIH82, Lung Cancer): 0.997 | AUC (NCIH196, Lung Cancer): 0.842 | AUC (NCIH211, Lung Cancer): 0.8687 | AUC (NCIH226, Lung Cancer): 0.9874 | AUC (NCIH292, Lung Cancer): 0.9319 | AUC (NCIH322, Lung Cancer): 0.9929 | AUC (NCIH358, Lung Cancer): 1 | AUC (NCIH441, Lung Cancer): 0.7826 | AUC (NCIH460, Lung Cancer): 0.9935 | AUC (NCIH520, Lung Cancer): 0.9951 | AUC (NCIH524, Lung Cancer): 1 | AUC (NCIH596, Lung Cancer): 0.9011 | AUC (NCIH647, Lung Cancer): 0.8544 | AUC (NCIH650, Lung Cancer): 0.6419 | AUC (NCIH661, Lung Cancer): 1 | AUC (NCIH747, Colon/Colorectal Cancer): 0.9981 | AUC (NCIH841, Lung Cancer): 0.9721 | AUC (NCIH1048, Lung Cancer): 1 | AUC (NCIH1299, Lung Cancer): 0.9947 | AUC (NCIH1341, Lung Cancer): 0.9136 | AUC (NCIH1373, Lung Cancer): 0.9741 | AUC (NCIH1437, Lung Cancer): 0.9932 | AUC (NCIH1568, Lung Cancer): 0.9412 | AUC (NCIH1573, Lung Cancer): 1 | AUC (NCIH1581, Lung Cancer): 0.9081 | AUC (NCIH1648, Lung Cancer): 0.7802 | AUC (NCIH1792, Lung Cancer): 0.8352 | AUC (NCIH1793, Lung Cancer): 0.9609 | AUC (NCIH1838, Lung Cancer): 0.9639 | AUC (NCIH1930, Lung Cancer): 0.9338 | AUC (NCIH1944, Lung Cancer): 0.9624 | AUC (NCIH1975, Lung Cancer): 0.9927 | AUC (NCIH2004RT, Rhabdoid): 1 | AUC (NCIH2052, Lung Cancer): 0.9941 | AUC (NCIH2122, Lung Cancer): 0.9334 | AUC (NCIH2170, Lung Cancer): 0.8755 | AUC (NCIH2172, Lung Cancer): 0.8463 | AUC (NCIH2196, Lung Cancer): 0.8725 | AUC (NCIH2228, Lung Cancer): 1 | AUC (NCIH2347, Lung Cancer): 0.9989 | AUC (NCIH2444, Lung Cancer): 1 | AUC (NCO2, CML): 0.9122 | AUC (NIHOVCAR3, Ovarian Cancer): 0.9967 | AUC (NUDHL1, Lymphoma): 0.5218 | AUC (NUGC3, Gastric Cancer): 0.905 | AUC (OAW42, Ovarian Cancer): 0.9968 | AUC (OC314, Ovarian Cancer): 0.7634 | AUC (OC316, Ovarian Cancer): 0.664 | AUC (OCIAML2, AML): 0.5324 | AUC (OCIAML3, AML): 0.8075 | AUC (OCILY19, Lymphoma): 0.7248 | AUC (OCILY132, T-cell lymphoma): 0.9273 | AUC (OCIM1, AML): 0.8977 | AUC (OE19, Esophageal Cancer): 0.9508 | AUC (OE21, Esophageal Cancer): 0.9943 | AUC (ONCODG1, Ovarian Cancer): 0.9442 | AUC (ONS76, Medulloblastoma): 0.6602 | AUC (OSRC2, Kidney Cancer): 1 | AUC (OV56, Ovarian Cancer): 1 | AUC (OVCAR8, Ovarian Cancer): 0.8858 | AUC (OVISE, Ovarian Cancer): 0.9803 | AUC (OVK18, Ovarian Cancer): 0.5969 | AUC (OVKATE, Ovarian Cancer): 0.8791 | AUC (OVTOKO, Ovarian Cancer): 0.9328 | AUC (PANC0203, Pancreatic Cancer): 0.9609 | AUC (PANC0327, Pancreatic Cancer): 1 | AUC (PANC0403, Pancreatic Cancer): 0.9938 | AUC (PANC0504, Pancreatic Cancer): 0.8732 | AUC (PANC0813, Pancreatic Cancer): 1 | AUC (PATU8902, Pancreatic Cancer): 0.9744 | AUC (PC3, Prostate Cancer): 1 | AUC (PECAPJ15, Head and Neck Cancer): 0.9295 | AUC (PF382, T-acute leukemia): 0.7571 | AUC (PK1, Pancreatic Cancer): 0.9937 | AUC (PK59, Pancreatic Cancer): 1 | AUC (PSN1, Pancreatic Cancer): 0.7783 | AUC (RCM1, Colon/Colorectal Cancer): 0.9586 | AUC (RD, Rhabdomyosarcoma): 0.8954 | AUC (RDES, Ewing Sarcoma): 0.5629 | AUC (RERFLCAI, Lung Cancer): 0.937 | AUC (RERFLCKJ, Lung Cancer): 0.8827 | AUC (RH4, Rhabdomyosarcoma): 0.8163 | AUC (RH28, Rhabdomyosarcoma): 0.8877 | AUC (RH36, Rhabdomyosarcoma): 0.9558 | AUC (RHJT, Rhabdomyosarcoma): 0.8764 | AUC (RI1, B-cell Lymphoma): 0.7034 | AUC (RL952, Endometrial/Uterine Cancer): 0.9936 | AUC (RL, B-cell Lymphoma): 0.8905 | AUC (RPMI8402, T-acute leukemia): 0.8153 | AUC (RT4, Bladder Cancer): 0.9721 | AUC (RVH421, Melanoma): 0.975 | AUC (S117, Thyroid Sarcoma): 0.8697 | AUC (SAOS2, Osteosarcoma): 0.6766 | AUC (SCABER, Bladder Cancer): 0.9263 | AUC (SCC9, Head and Neck Cancer): 0.7896 | AUC (SCC25, Head and Neck Cancer): 0.9849 | AUC (SCLC21H, Lung Cancer): 0.8733 | AUC (SEM, B-cell Leukemia): 0.851 | AUC (SF539, Glioma): 0.9912 | AUC (SH4, Melanoma): 0.9252 | AUC (SH10TC, Gastric Cancer): 0.7637 | AUC (SHP77, Lung Cancer): 0.791 | AUC (SIMA, Neuroblastoma): 0.8003 | AUC (SJSA1, Osteosarcoma): 0.881 | AUC (SKES1, Ewing Sarcoma): 0.7015 | AUC (SKHEP1, Liver Cancer): 0.9726 | AUC (SKM1, AML): 0.6213 | AUC (SKMEL30, Melanoma): 0.7984 | AUC (SKMES1, Lung Cancer): 0.9581 | AUC (SKMM2, Myeloma): 0.9554 | AUC (SKNAS, Neuroblastoma): 0.9789 | AUC (SKNBE2, Neuroblastoma): 0.6208 | AUC (SKNDZ, Neuroblastoma): 0.8143 | AUC (SKNEP1, Ewing Sarcoma): 0.8025 | AUC (SKNMC, Ewing Sarcoma): 0.8546 | AUC (SKNO1, AML): 0.6432 | AUC (SKNSH, Neuroblastoma): 0.8336 | AUC (SKOV3, Ovarian Cancer): 0.9975 | AUC (SKUT1, Leiomyosarcoma): 0.8326 | AUC (SNU1, Gastric Cancer): 0.9131 | AUC (SNU46, Head and Neck Cancer): 0.9224 | AUC (SNU61, Colon/Colorectal Cancer): 0.9346 | AUC (SNU81, Colon/Colorectal Cancer): 1 | AUC (SNU182, Liver Cancer): 0.7735 | AUC (SNU201, Glioblastoma): 0.712 | AUC (SNU213, Pancreatic Cancer): 0.9853 | AUC (SNU216, Gastric Cancer): 0.9769 | AUC (SNU245, Bile Duct Cancer): 0.8366 | AUC (SNU407, Colon/Colorectal Cancer): 0.9923 | AUC (SNU423, Liver Cancer): 0.9162 | AUC (SNU449, Liver Cancer): 0.9509 | AUC (SNU466, Glioblastoma): 0.9993 | AUC (SNU478, Bile Duct Cancer): 0.6392 | AUC (SNU601, Gastric Cancer): 0.8941 | AUC (SNU668, Gastric Cancer): 0.9591 | AUC (SNU685, Endometrial/Uterine Cancer): 0.9601 | AUC (SNU719, Gastric Cancer): 0.914 | AUC (SNU869, Bile Duct Cancer): 0.9994 | AUC (SNU878, Liver Cancer): 0.7965 | AUC (SNU886, Liver Cancer): 1 | AUC (SNU1041, Head and Neck Cancer): 0.8828 | AUC (SNU1066, Head and Neck Cancer): 1 | AUC (SNU1076, Head and Neck Cancer): 0.8929 | AUC (SNU1077, Endometrial/Uterine Cancer): 0.9948 | AUC (SNU1079, Bile Duct Cancer): 0.994 | AUC (SNU1105, Glioblastoma): 0.9872 | AUC (SNU1196, Bile Duct Cancer): 0.8873 | AUC (SNU1214, Head and Neck Cancer): 0.7307 | AUC (SNUC2A, Colon/Colorectal Cancer): 0.8028 | AUC (SNUC4, Colon/Colorectal Cancer): 0.894 | AUC (SQ1, Lung Cancer): 0.8902 | AUC (SR786, Lymphoma): 0.7905 | AUC (STM9101, Rhabdoid): 0.9061 | AUC (SUDHL8, Lymphoma): 0.8983 | AUC (SW48, Colon/Colorectal Cancer): 1 | AUC (SW579, Thyroid Cancer): 0.9957 | AUC (SW620, Colon/Colorectal Cancer): 1 | AUC (SW780, Bladder Cancer): 0.8694 | AUC (SW837, Colon/Colorectal Cancer): 0.8996 | AUC (SW900, Lung Cancer): 0.9538 | AUC (SW948, Colon/Colorectal Cancer): 0.8065 | AUC (SW1088, Glioma): 0.9904 | AUC (SW1116, Colon/Colorectal Cancer): 0.8985 | AUC (SW1463, Colon/Colorectal Cancer): 0.8864 | AUC (SW1710, Bladder Cancer): 1 | AUC (T3M10, Lung Cancer): 0.9279 | AUC (T24, Bladder Cancer): 0.9961 | AUC (T47D, Breast Cancer): 0.8791 | AUC (TALL1, T-acute leukemia): 0.9864 | AUC (TC71, Ewing Sarcoma): 0.7599 | AUC (TC106, Ewing Sarcoma): 1 | AUC (TC205, Ewing Sarcoma): 0.7558 | AUC (TCCPAN2, Pancreatic Cancer): 0.9414 | AUC (TCCSUP, Bladder Cancer): 0.982 | AUC (TE1, Esophageal Cancer): 1 | AUC (TE4, Esophageal Cancer): 1 | AUC (TE6, Esophageal Cancer): 0.9744 | AUC (TE9, Esophageal Cancer): 0.9981 | AUC (TE10, Esophageal Cancer): 0.7792 | AUC (TE11, Esophageal Cancer): 0.9258 | AUC (TE15, Esophageal Cancer): 0.8586 | AUC (TE617T, Rhabdomyosarcoma): 0.9947 | AUC (TF1, AML): 0.6668 | AUC (TM87, Rhabdoid): 0.9581 | AUC (TOLEDO, Lymphoma): 0.9697 | AUC (TOV21G, Ovarian Cancer): 0.9924 | AUC (TT2609C02, Thyroid Cancer): 0.8798 | AUC (TT, Thyroid Cancer): 0.7695 | AUC (TTC442, Rhabdomyosarcoma): 0.8425 | AUC (TTC549, Rhabdoid): 0.9131 | AUC (TTC642, Rhabdoid): 0.7844 | AUC (TTC1240, Rhabdoid): 0.4497 | AUC (TYKNU, Ovarian Cancer): 0.8502 | AUC (U2OS, Osteosarcoma): 0.8623 | AUC (U266B1, Myeloma): 0.9866 | AUC (U937, AML): 0.7957 | AUC (UACC62, Melanoma): 0.8964 | AUC (UACC257, Melanoma): 0.9638 | AUC (UBLC1, Bladder Cancer): 0.695 | AUC (UMUC1, Bladder Cancer): 0.8319 | AUC (UW228, Medulloblastoma): 0.9704 | AUC (VMCUB1, Bladder Cancer): 0.7437 | AUC (VMRCRCW, Kidney Cancer): 0.9159 | AUC (VMRCRCZ, Kidney Cancer): 0.8277 | AUC (WM88, Melanoma): 0.9177 | AUC (WM793, Melanoma): 0.9978 | AUC (WM983B, Melanoma): 0.8412 | AUC (YAPC, Pancreatic Cancer): 1 | AUC (YD10B, Head and Neck Cancer): 0.8679 | AUC (YD15, Head and Neck Cancer): 0.7679 | AUC (YD38, Head and Neck Cancer): 0.6898 | AUC (YH13, Glioblastoma): 0.9673
